pIC50, pKd: −log10 of the molar value.
Tests used:
Galectin-3 [1] = target: T1, Galectin-3 (Homo sapiens, UniProt P17931); assay: Inhibition of recombinant galectin 3 in human O type red blood cells by hemagglutinination assay relative to galactose
Galectin-3 [2] = target: T1, Galectin-3; assay: Inhibition of recombinant galectin 3 in human O type red blood cells by hemagglutinination assay relative to lactose
Galectin-1 [3] = target: T2, Galectin-1 (Homo sapiens, UniProt P09382); assay: Inhibition of recombinant galectin 1 in human O type red blood cells by hemagglutinination assay relative to lactose
T2 sequence (P09382 whole entry): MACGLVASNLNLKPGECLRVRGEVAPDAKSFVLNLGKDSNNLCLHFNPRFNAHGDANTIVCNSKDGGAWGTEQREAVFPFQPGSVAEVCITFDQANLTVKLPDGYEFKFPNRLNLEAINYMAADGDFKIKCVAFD

Galectin-1 [4] = target: T2, Galectin-1; assay: Inhibition of recombinant galectin 1 in human O type red blood cells by hemagglutinination assay relative to galactose
Galectin-3 [5] = target: T1, Galectin-3; assay: Inhibition of galectin 3
Galectin-3 [6] = target: T1, Galectin-3; assay: Binding affinity to galectin 3
Galectin-1 [7] = target: T2, Galectin-1; assay: Binding affinity to galectin 1

T1 sequence (P17931 whole entry): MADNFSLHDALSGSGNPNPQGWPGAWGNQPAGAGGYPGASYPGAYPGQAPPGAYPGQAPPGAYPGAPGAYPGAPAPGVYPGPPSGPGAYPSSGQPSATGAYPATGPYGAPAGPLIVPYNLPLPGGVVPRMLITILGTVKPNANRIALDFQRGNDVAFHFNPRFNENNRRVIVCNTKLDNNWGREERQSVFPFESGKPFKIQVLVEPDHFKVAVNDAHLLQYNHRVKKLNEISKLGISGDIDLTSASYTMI

Compound | Activity (Galectin-3 [1]) | Activity (Galectin-1 [4]) | further results
OC[C@@H]1O[C@H](n2cc(CS[C@@H]3O[C@H](CO)[C@@H](O[C@@H]4O[C@H](CO)[C@H](O)[C@H](O)[C@H]4O)[C@H](O)[C@H]3O)nn2)[C@@H](O)[C@H](O)[C@@H]1O | 2.6 | 1.3 | Activity (Galectin-3 [2]): 1.3; Activity (Galectin-1 [3]): 0.7
C=C(C[C@@H]1O[C@H](CO)[C@H](O)[C@H](O)[C@H]1O)c1cccc([N+](=O)[O-])c1 | < 10 | 10 | –
OC[C@@H]1O[C@H](O[C@@H]2[C@@H](O)[C@H](O)[C@@H](n3cc(CS[C@@H]4O[C@H](CO)[C@H](O)[C@H](O)[C@H]4O)nn3)O[C@H]2CO)[C@@H](O)[C@H](O)[C@@H]1O | 1.3 | 2.6 | Activity (Galectin-3 [2]): 0.7; Activity (Galectin-1 [3]): 1.3
C#CCS[C@@H]1O[C@H](CO)[C@@H](O[C@@H]2O[C@H](CO)[C@H](O)[C@H](O)[C@H]2O)[C@H](O)[C@H]1O | 2.6 | 1.3 | –
C=C(C[C@@H]1O[C@H](CO)[C@H](O)[C@H](O)[C@H]1O)c1ccc(OC)cc1 | 10 | < 10 | –
OC[C@@H]1O[C@H](O[C@@H]2[C@@H](O)[C@H](O)[C@@H](OCCCCCCO[C@@H]3O[C@H](CO)[C@@H](O[C@@H]4O[C@H](CO)[C@H](O)[C@H](O)[C@H]4O)[C@H](O)[C@H]3O)O[C@H]2CO)[C@@H](O)[C@H](O)[C@@H]1O | – | – | pIC50 (Galectin-3 [5]): 3.79
OC[C@@H]1O[C@H](O[C@@H]2[C@@H](O)[C@H](O)[C@@H](SCC#CC#CCS[C@@H]3O[C@H](CO)[C@@H](O[C@@H]4O[C@H](CO)[C@H](O)[C@H](O)[C@H]4O)[C@H](O)[C@H]3O)O[C@H]2CO)[C@@H](O)[C@H](O)[C@@H]1O | 5 | 2.6 | Activity (Galectin-3 [2]): 2.5; Activity (Galectin-1 [3]): 1.3
COC(=O)/C=C/C[C@@H]1O[C@H](CO)[C@H](O)[C@H](O)[C@H]1O | 10 | 10 | –
CO[C@@H]1O[C@H](CO)[C@@H](O[C@@H]2O[C@H](CO)[C@H](O)[C@H](O)[C@H]2O)[C@H](O)[C@H]1O | – | – | Activity (Galectin-3 [6]): 220 µM
C/C=C/[C@@H]1O[C@H](CO)[C@H](O)[C@H](O)[C@H]1O | < 10 | < 10 | –
OC[C@@H]1O[C@H](n2cc(CS[C@@H]3O[C@H](CO)[C@H](O)[C@H](O)[C@H]3O)nn2)[C@@H](O)[C@H](O)[C@@H]1O | 20 | < 10 | Activity (Galectin-3 [2]): 10
CO[C@@H]1O[C@H](CO)[C@@H](O[C@@H]2O[C@H](CO)[C@H](O)[C@H](O)[C@H]2O)[C@H](O)[C@H]1NC(C)=O | – | – | Activity (Galectin-3 [6]): 67 µM
OC[C@H]1O[C@@H](C/C=C/c2ccccc2)[C@H](O)[C@@H](O)[C@H]1O | < 10 | < 10 | –
OC[C@@H]1O[C@H](SCC#CC#CCS[C@@H]2O[C@H](CO)[C@H](O)[C@H](O)[C@H]2O)[C@@H](O)[C@@H](O)[C@@H]1O | < 10 | 10 | Activity (Galectin-1 [3]): 5
LACTOSE, ANHYDROUS | 1 | 1 | –
CC(=O)C[C@@H]1O[C@H](CO)[C@H](O)[C@H](O)[C@H]1O | 10 | < 10 | –
COC(=O)Cn1cc(C[C@@H]2O[C@H](CO)[C@H](O)[C@H](O)[C@H]2O)nn1 [TRIAZOLYL GALACTOSIDE] | – | – | pKd (Galectin-1 [7]): 2.30
CO[C@@H]1O[C@H](CO)[C@@H](O[C@@H]2O[C@H](CO)[C@H](O)[C@H](NC(=O)c3cc4ccccc4cc3C(=O)O)[C@H]2O)[C@H](O)[C@H]1NC(C)=O | – | – | pKd (Galectin-3 [6]): 6.52
OC[C@H]1O[C@@H](C/C=C/c2cccc(/C=C/C[C@@H]3O[C@H](CO)[C@H](O)[C@H](O)[C@H]3O)c2)[C@H](O)[C@@H](O)[C@H]1O | < 10 | 10 | Activity (Galectin-1 [3]): 5
C#CCS[C@@H]1O[C@H](CO)[C@H](O)[C@H](O)[C@H]1O | 20 | < 10 | –
OC[C@@H]1O[C@H](SCC#Cc2ccc(C#CCS[C@@H]3O[C@H](CO)C(O)[C@H](O)[C@H]3O)cc2)[C@@H](O)[C@H](O)[C@@H]1O (single isomer, unassigned) | < 10 | 20 | Activity (Galectin-1 [3]): 10
O=C[C@H](O)[C@@H](O)[C@@H](O)[C@H](O)CO | 1 | 1 | –
O=S(=O)(c1ccc2ccccc2c1)[C@@H]1O[C@H](CO)[C@@H](O[C@@H]2O[C@H](CO)[C@H](O)[C@H](O)[C@H]2O)[C@H](O)[C@H]1O | – | – | pKd (Galectin-3 [6]): 3.50; pKd (Galectin-1 [7]): 4.40
OC[C@@H]1O[C@H](O[C@@H]2[C@@H](O)[C@H](O)[C@@H](n3cc(CS[C@@H]4O[C@H](CO)[C@@H](O[C@@H]5O[C@H](CO)[C@H](O)[C@H](O)[C@H]5O)[C@H](O)[C@H]4O)nn3)O[C@H]2CO)[C@@H](O)[C@H](O)[C@@H]1O | 5 | 2.6 | Activity (Galectin-3 [2]): 2.5; Activity (Galectin-1 [3]): 1.3
O=C(N[C@@H]1[C@H](O)[C@H](CO)O[C@H](S[C@@H]2O[C@H](CO)[C@H](O)[C@H](NC(=O)c3ccc([N+](=O)[O-])cc3)[C@H]2O)[C@H]1O)c1ccc([N+](=O)[O-])cc1 | – | – | pKd (Galectin-3 [6]): 7.48
COC(=O)/C=C(\C[C@@H]1O[C@H](CO)[C@H](O)[C@H](O)[C@H]1O)c1ccccc1 | < 10 | 160 | –
